From US10881110B2, “Herbicidal compositions comprising isoxazolo[5,4-b]pyridines” (BASF SE, priority 2014, dated 2021)
Where two headings read alike, the source gives them in different places.

Key:
Assay in all cases: greenhouse post-emergence herbicidal test
POLAV = type: in vivo, Polygonum aviculare; design: key: rating on a scale from 0 to 100
Procedure: (§1) The culture containers used were plastic pots containing medium loamy sand with approximately 4.6% of humus and 69.9% sand as substrate. The seeds of the test plants were sown separately for each species.
(§2) For the post-emergence treatment, the test plants were grown to a plant height of from 1 to 15 cm, depending on the plant habit, and only then treated with the active compounds which had been suspended or emulsified in water. To this end, the test plants were either sown directly, and grown in the same containers, or they were first grown separately as seedlings and transplanted into the test containers a few days prior to treatment.
(§3) Depending on the species, the plants were kept at 10-25° C. and 20-35° C., respectively.
(§4) The test period extended over 1 to 3 weeks. During this time, the plants were tended and their response to the individual treatments was evaluated 20 days after treatment except mentioned otherwise.
Evaluation was carried out using a scale from 0 to 100. 100 means no emergence of the plants, or complete destruction of at least the above-ground parts, and 0 means no damage or normal course of growth.
The respective stated components A and B, and, if appropriate, C, were formulated as a 10% by weight strength emulsion concentrate and, with addition of the amount of solvent system, introduced into the spray liquor used for applying the active compound. In the examples, the solvent used was water.
In the examples below, using the method of S. R. Colby (1967) “Calculating synergistic and antagonistic responses of herbicide combinations”, Weeds 15, p. 22 ff., the value E, which is expected if the activity of the individual active compounds is only additive, was calculated. E=X+Y−(X·Y/100)

POLCO = type: in vivo, Polygonum convolvulus; design: key to herbicidal activity against POLCO found: rating on a scale from 0 to 100; settings: post emergence
Summary of the method: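 Post-emergence greenhouse test: plants in loamy sand, sprayed at 1–15 cm height with aqueous spray liquor from 10% emulsion concentrates, kept at 10-25 °C or 20-35 °C by species. Damage scored 0–100 (100 = complete destruction), usually 20 days after treatment. Expected additive effect E from Colby: E=X+Y−(X·Y/100).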

SETVI = type: in vivo, Setaria viridis; settings: a.i. g/ha: I.1 20.8, B.192 62.5, 20 days after treatment
Procedure: as §1, §2, §3, §4
Evaluation was carried out using a scale from 0 to 100. […]
In the examples below, using the method of S. R. Colby (1967) “Calculating synergistic and antagonistic responses of herbicide combinations”, Weeds 15, p. 22 ff., the value E, which is expected if the activity of the individual active compounds is only additive, was calculated. […]

[1] = 6 days after treatment, g/ha a.i.: I.1 31.25, naptalam 50, mixture 31.25+50
[2] = 6 days after treatment, g/ha a.i.: I.1 62.5, B.96 70, mixture 62.5+70
[3] = 6 days after treatment, g/ha a.i.: I.1 62.5, B.96 140, mixture 62.5+140
[4] = 6 days after treatment, g/ha a.i.: I.1 62.5, naptalam 50, mixture 62.5+50
[5] = a.i. g/ha: I.1 15.6, B.190 62.5, 20 days after treatment
[6] = a.i. g/ha: I.1 31.25, bentazon Na 125, 20 days after treatment

O=C(O)c1cc(C2CC2)nc2onc(C3CC3)c12 [I.1]
herbicidal activity against POLAV found (POLAV; 62.5 g/ha a.i.): 65
herbicidal activity against POLAV found (POLAV; 125 g/ha a.i.): 65
herbicidal activity against POLAV found (POLAV; [1]): 70
herbicidal activity against POLAV found (POLAV; 6 days after treatment, g/ha a.i.: I.1 31.25, naptalam 200, mixture 31.25+200): 70
herbicidal activity against POLAV found (POLAV; [2]): 70
herbicidal activity against POLAV found (POLAV; [3]): 70
herbicidal activity against POLAV found (POLAV; [4]): 70
herbicidal activity against POLAV found (POLAV; 6 days after treatment, g/ha a.i.: I.1 62.5, naptalam 100, mixture 62.5+100): 70
herbicidal activity against POLAV found (POLAV; 6 days after treatment, g/ha a.i.: I.1 62.5, naptalam 200, mixture 62.5+200): 70
herbicidal activity against POLAV found (POLAV; [5]): 45%
herbicidal activity against POLAV found (POLAV; [6]): 80%
pest or weed control at 31.25 g/ha (POLCO; Fallopia convolvulus, post-emergence, 480 h, I.1 alone 31.25 g/ha a.i., read-out: herbicidal activity against POLCO found): 0%
pest or weed control at 62.5 g/ha (POLCO; Fallopia convolvulus, post-emergence, 480 h, I.1 alone 62.5 g/ha a.i., read-out: herbicidal activity against POLCO found): 65%
pest or weed control at 125 g/ha (POLCO; Fallopia convolvulus, post-emergence, 480 h, I.1 alone 125 g/ha a.i., read-out: herbicidal activity against POLCO found): 65%
pest or weed control at 31.25 g/ha (POLCO; Fallopia convolvulus, post-emergence, 480 h, I.1 31.25 g/ha a.i., read-out: herbicidal activity against POLCO found): 20%
pest or weed control at 31.25 g/ha (POLCO; Fallopia convolvulus, post-emergence, 480 h, single active, 31.25 g/ha a.i., read-out: herbicidal activity against POLCO found): 20%
herbicidal activity against POLCO found (POLCO; 6 days after treatment, g/ha a.i.: I.1 31.25, B.96 70, mixture 31.25+70): 35
herbicidal activity against POLCO found (POLCO; 6 days after treatment, g/ha a.i.: I.1 31.25, B.96 140, mixture 31.25+140): 35
herbicidal activity against POLCO found (POLCO; [1]): 35
herbicidal activity against POLCO found (POLCO; [2]): 70
herbicidal activity against POLCO found (POLCO; [3]): 70
herbicidal activity against POLCO found (POLCO; [4]): 70
herbicidal activity against POLCO found (POLCO; I.1 15.6 g/ha, B.103 7.5 g/ha a.i.): 10
herbicidal activity against POLCO found (POLCO; I.1 15.62 g/ha, B.167 62.5 g/ha a.i.): 10
herbicidal activity against POLCO found (POLCO; I.1 15.62 g/ha, B.167 125 g/ha a.i.): 10
herbicidal activity against POLCO found (POLCO; I.1 15.62 g/ha, B.89 12.5 g/ha a.i.): 0
herbicidal activity against POLCO found (POLCO; I.1 62.5 g/ha, B.103 7.5 g/ha a.i.): 40
herbicidal activity against POLCO found (POLCO; I.1 62.5 g/ha, B.103 15 g/ha a.i.): 40
herbicidal activity against POLCO found (POLCO; I.1 62.5 g/ha, B.167 62.5 g/ha a.i.): 40
herbicidal activity against POLCO found (POLCO; I.1 62.5 g/ha, B.167 125 g/ha a.i.): 40
herbicidal activity against POLCO found (POLCO; [5]): 30%
herbicidal activity against POLCO found (POLCO; a.i. g/ha: I.1 15.6, B.67 125, 20 days after treatment): 0%
herbicidal activity against POLCO found (POLCO; a.i. g/ha: I.1 20.8, B.67 62.5, 20 days after treatment): 30%
herbicidal activity against POLCO found (POLCO; a.i. g/ha: I.1 20.8, B.79 25, 20 days after treatment): 50%
herbicidal activity against POLCO found (POLCO; a.i. g/ha: I.1 31.25, B.190 62.5, 20 days after treatment): 50%
herbicidal activity against POLCO found (POLCO; a.i. g/ha: I.1 31.25, B.67 125, 20 days after treatment): 0%
herbicidal activity against POLCO found (POLCO; [6]): 50%
herbicidal activity against POLCO found (POLCO; a.i. g/ha: I.1 62.5, B.67 62.5, 20 days after treatment): 65%
herbicidal activity against POLCO found (POLCO; a.i. g/ha: I.1 62.5, B.79 25, 20 days after treatment): 75%
herbicidal activity against POLCO found (POLCO; application rate a.i.: I.1 31.25 g/ha, B.100 (isoxaflutole) 12.5 g/ha, alone or as mixture (composition 1.100)): 70
herbicidal activity against POLCO found (POLCO; application rate a.i.: I.1 31.25 g/ha, B.139 (pyroxasulfone) 12.5 g/ha, alone or as mixture (composition 1.139)): 65
herbicidal activity against POLCO found (POLCO; application rate a.i.: I.1 31.25 g/ha, B.40 (imazethapyr) 7.5 g/ha, alone or as mixture (composition 1.40)): 20
herbicidal activity against POLCO found (POLCO; application rate a.i.: I.1 62.5 g/ha, B.107 (topramezone) 6 g/ha, alone or as mixture (composition 1.107)): 75
herbicidal activity against POLCO found (POLCO; application rate a.i.: I.1 62.5 g/ha, B.84 (paraquat-dichloride) 17.5 g/ha, alone or as mixture (composition 1.84)): 90
herbicidal activity against POLCO found (POLCO; applied alone at 31.25 g/ha a.i.): 65
herbicidal activity against POLCO found (POLCO; applied alone at 62.5 g/ha a.i.): 90
herbicidal activity against POLCO found (POLCO; applied alone at 125 g/ha a.i.): 85
herbicidal activity against POLCO found (POLCO; g/ha a.i.: I.1 31.25, B.63 1, mixture 31.25+1): 30
herbicidal activity against POLCO found (POLCO; g/ha a.i.: I.1 125, B.63 0.5, mixture 125+0.5): 80
herbicidal activity against POLCO found (POLCO; g/ha a.i.: I.1 125, B.63 1, mixture 125+1): 80
herbicidal activity against SETVI found (SETVI): 25%
